Measured values reported in ChEMBL document CHEMBL5380808, “Design, Synthesis, and Biological Activity of Marinacarboline Analogues as STAT3 Pathway Inhibitors for Docetaxel-Resistant Triple-Negative Breast Cancer” (J Med Chem, 2023).
Calls of active or inactive are those of the source. The rule behind the calls is not given here.

Key:
[1] = Cytotoxicity against human MRC5 cells assessed as reduction in cell viability incubated for 72 hrs by sulforhodamine B assay; format: toxicity, cell-based
MDA-MB-231 [2] = assay: Antiproliferative activity against human MDA-MB-231 cells assessed as reduction in cell viability incubated for 72 hrs by sulforhodamine B assay; format: functional, cell-based; conditions: MDA-MB-231, 72 h
[3] = Selectivity index, ratio of IC50 for cytotoxicity against human MRC5 cells to IC50 for antiproliferative activity against human MDA-MB-231 cells; format: toxicity, cell-based; conditions: MRC5 cells and MDA-MB-231 cells, read-out: Ratio IC50
[4] = target: Signal transducer and activator of transcription 3 (Homo sapiens) (UniProt P40763); assay: Binding affinity to STAT3 in docetaxel-resistant human MDA-MB-231-DTR cells at 20 uM incubated for 1 hrs by streptavidin bead based pull-down assay; format: cell-based
Sequence of Signal transducer and activator of transcription 3 (Homo sapiens) (P40763 whole entry): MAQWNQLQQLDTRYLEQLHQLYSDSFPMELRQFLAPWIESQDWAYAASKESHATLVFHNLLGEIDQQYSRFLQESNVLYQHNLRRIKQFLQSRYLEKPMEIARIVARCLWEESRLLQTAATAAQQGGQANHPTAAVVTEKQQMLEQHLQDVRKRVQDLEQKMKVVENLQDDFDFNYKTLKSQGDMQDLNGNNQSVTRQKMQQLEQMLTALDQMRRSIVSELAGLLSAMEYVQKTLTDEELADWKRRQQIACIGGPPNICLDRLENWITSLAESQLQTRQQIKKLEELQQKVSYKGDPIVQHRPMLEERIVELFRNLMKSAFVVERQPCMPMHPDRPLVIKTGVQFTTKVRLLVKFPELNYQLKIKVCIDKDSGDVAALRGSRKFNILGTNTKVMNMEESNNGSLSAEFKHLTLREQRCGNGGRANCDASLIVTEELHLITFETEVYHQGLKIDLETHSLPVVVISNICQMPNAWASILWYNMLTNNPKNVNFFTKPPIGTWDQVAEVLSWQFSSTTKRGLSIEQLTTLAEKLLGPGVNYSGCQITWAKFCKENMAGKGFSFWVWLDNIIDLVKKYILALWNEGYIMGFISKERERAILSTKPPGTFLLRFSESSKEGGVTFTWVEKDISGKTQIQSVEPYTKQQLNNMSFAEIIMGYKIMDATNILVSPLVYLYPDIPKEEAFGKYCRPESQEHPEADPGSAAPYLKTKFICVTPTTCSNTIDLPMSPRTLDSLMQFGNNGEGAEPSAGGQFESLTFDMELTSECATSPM

[5] = Antiproliferative activity against docetaxel-resistant human MDA-MB-231-DTR cells assessed as reduction in cell viability incubated for 72 hrs by sulforhodamine B assay; format: functional, cell-based; conditions: MDA-MB-231, 72 h
[6] = target: Signal transducer and activator of transcription 3 (Homo sapiens) (UniProt P40763); assay: Inhibition of STAT3 phosphorylation at Y705 residue in human MDA-MB-231 cells assessed as decrease in phosphorylated STAT3 level at 5 uM incubated for 24 hrs by Western blot analysis; format: cell-based
[7] = Antiproliferative activity against […] cells assessed as reduction in cell viability incubated for 72 hrs by MTT assay; format: functional, cell-based
MDA-MB-231 [8] = assay: Antitumor activity against docetaxel-resistant human MDA-MB-231-DTR cells xenografted in BALB/c mouse assessed as tumor growth inhibition at 5 mg/kg, ip daily for 12 days; format: functional, organism-based; conditions: time 12.0 day
MDA-MB-231 [9] = assay: Antiproliferative activity against human MDA-MB-231 cells assessed as reduction in cell viability incubated for 72 hrs by MTT assay; format: functional, cell-based; conditions: MDA-MB-231, 72 h

Row | SMILES | IC50 (MDA-MB-231 [2]) | IC50 at 72 h [1] | selectivity ratio [3] | further results
1 | COc1ccc2[nH]cc(CCNC(=O)c3cc4c([nH]c5ccccc54)c(C(C)=O)n3)c2c1 | 10.8 µM | 39.3 µM | 3.62 | 
2 | O=C(CCCC[C@@H]1SC[C@@H]2NC(=O)N[C@@H]21)NCCn1cc(COc2ccc3[nH]c4c(C(=O)c5ccc(Br)cc5)nc(C(=O)NCCc5c[nH]c6ccccc56)cc4c3c2)nn1 |  |  |  | Activity [4]: Active
3 | Cc1ccc(C(=O)c2nc(C(=O)NCCc3c[nH]c4ccccc34)cc3c2[nH]c2ccccc23)cc1 | 8.29 µM | 41.2 µM | 4.98 | 
4 | CC(=O)c1nc(C(=O)NCCCc2c[nH]c3ccccc23)cc2c1[nH]c1ccccc12 | > 50 µM | > 50 µM |  | 
5 | CC(=O)c1nc(C(=O)NCCc2c[nH]c3ccc(Cl)cc23)cc2c1[nH]c1ccccc12 | 5.94 µM | 36.5 µM | 6.14 | 
6 | CC(=O)c1nc(C(=O)OCCc2c[nH]c3ccccc23)cc2c1[nH]c1ccccc12 | 9.52 µM | 38.3 µM | 4.02 | IC50 [5]: 8.48 µM
7 | O=C(NCCc1c[nH]c2ccccc12)c1cc2c([nH]c3ccccc32)c(C(=O)c2cccc(Br)c2)n1 | > 50 µM | > 50 µM |  | 
8 | O=C(NCCc1c[nH]c2ccccc12)c1cc2c([nH]c3ccccc32)c(-c2ccc(Br)cc2)n1 | 7.06 µM | 48.8 µM | 6.19 | IC50 [5]: 6.81 µM; inhibition [6]: Active
9 | COc1cc([C@@H]2c3cc4c(cc3[C@@H](O[C@@H]3O[C@@H]5CO[C@@H](C)O[C@H]5[C@H](O)[C@H]3O)[C@H]3COC(=O)[C@H]23)OCO4)cc(OC)c1O [ETOPOSIDE] | 3.66 µM | 13.5 µM | 3.68 | 
10 | COc1ccc(NC(=O)c2cc3c([nH]c4ccccc43)c(C(C)=O)n2)cc1 | > 50 µM | > 50 µM |  | 
11 | CC(=O)c1nc(C(=O)NCc2ccc(F)cc2)cc2c1[nH]c1ccccc12 | 24.7 µM | > 50 µM | > 2.02 | 
12 | CC(=O)c1nc(C(=O)NCCc2c[nH]c3ccccc23)cc2c1[nH]c1ccccc12 [MARINACARBOLINE D] | 7.71 µM | 27.2 µM | 3.53 | IC50 [5]: 8.21 µM
13 | COc1ccc(CCNC(=O)c2cc3c([nH]c4ccccc43)c(C(C)=O)n2)cc1 [MARINACARBOLINE A] | > 50 µM | > 50 µM |  | 
14 | CC(=O)c1nc(C(=O)NCc2c[nH]c3ccccc23)cc2c1[nH]c1ccccc12 | 14.3 µM | > 50 µM | > 3.51 | 
15 | CC(=O)c1nc(C(=O)N(Cc2ccccc2)Cc2ccccc2)cc2c1[nH]c1ccccc12 | 20.8 µM | > 50 µM | > 2.4 | 
16 | O=C(NCCc1c[nH]c2ccccc12)c1cc2c([nH]c3ccccc32)c(C(=O)c2ccc(O)cc2)n1 | 6.82 µM | 39.3 µM | 5.76 | IC50 [5]: 6.62 µM; inhibition [6]: Active
17 | O=C(NCCc1c[nH]c2ccccc12)c1cc2c([nH]c3ccccc32)c(C(=O)c2ccccc2)n1 | 21.2 µM | 31.9 µM | 1.5 | 

Row | SMILES | IC50 (MDA-MB-231 [2]) | IC50 at 72 h [1] | selectivity ratio [3] | further results
18 | O=C(NCCc1c[nH]c2ccccc12)c1cc2c([nH]c3ccccc32)c(-c2ccccc2)n1 | 19.2 µM | > 50 µM | > 2.6 | 
19 | O=C(NCc1ccc(O)cc1)c1cc2c([nH]c3ccccc32)c(C(=O)c2ccc(O)cc2)n1 | > 50 µM | > 50 µM |  | 
20 | CC(=O)O[C@H]1C(=O)[C@@]2(C)[C@H]([C@H](OC(=O)c3ccccc3)[C@]3(O)C[C@H](OC(=O)[C@H](O)[C@@H](NC(=O)c4ccccc4)c4ccccc4)C(C)=C1C3(C)C)[C@]1(OC(C)=O)CO[C@@H]1C[C@@H]2O [PACLITAXEL] |  |  |  | IC50 [7]: 4.68 µM; Activity (MDA-MB-231 [8]): inactive; IC50 (MDA-MB-231 [9]): 0.07 µM
21 | O=C(NCCc1c[nH]c2ccccc12)c1cc2c([nH]c3ccccc32)c(-c2ccc(O)cc2)n1 | 5.68 µM | 46.3 µM | 8.15 | 
22 | O=C(NCCc1c[nH]c2ccccc12)c1cc2c([nH]c3ccccc32)c(C(=O)c2ccccc2Br)n1 | > 50 µM | > 50 µM |  | 
23 | CC(=O)c1nc(C(=O)NCc2ccc(C#N)cc2)cc2c1[nH]c1ccccc12 | > 50 µM | > 50 µM |  | 
24 | O=C(NCCc1c[nH]c2ccccc12)c1cc2c([nH]c3ccccc32)c(C(=O)c2ccc(Cl)cc2)n1 | 14.7 µM | > 50 µM | > 3.4 | 
25 | CC(=O)c1nc(C(=O)NCc2ccc(C(C)(C)C)cc2)cc2c1[nH]c1ccccc12 | 34.2 µM | > 50 µM | > 1.46 | 
26 | CC(=O)c1nc(C(=O)Nc2ccc3[nH]ccc3c2)cc2c1[nH]c1ccccc12 | 6.98 µM | 48.2 µM | 6.91 | 
27 | CC(=O)c1nc(C(=O)NCc2ccc3[nH]ccc3c2)cc2c1[nH]c1ccccc12 | 14.9 µM | > 50 µM | > 3.36 | 
28 | COc1ccc(CNC(=O)c2cc3c([nH]c4ccccc43)c(C(C)=O)n2)cc1 | 16.8 µM | > 50 µM | > 2.97 | 
29 | CCCC(=O)c1nc(C(=O)NCCc2c[nH]c3ccccc23)cc2c1[nH]c1ccccc12 | > 50 µM | > 50 µM |  | 
30 | CC(=O)c1nc(C(=O)NCCc2ccc(O)cc2)cc2c1[nH]c1ccccc12 | > 50 µM | > 50 µM |  | 
31 | O=C(NCc1ccc(O)cc1)c1cc2c([nH]c3ccccc32)c(C(=O)c2ccc(Br)cc2)n1 | > 50 µM | > 50 µM |  | 
32 | Cc1ccc(-c2nc(C(=O)NCCc3c[nH]c4ccccc34)cc3c2[nH]c2ccccc23)cc1 | 6.89 µM | 42 µM | 6.1 | 
33 | CC(=O)c1nc(C(=O)Nc2ccc(C(F)(F)F)cc2)cc2c1[nH]c1ccccc12 | > 50 µM | > 50 µM |  | 
34 | CC(=O)c1nc(C(=O)NCCc2c(C)[nH]c3ccccc23)cc2c1[nH]c1ccccc12 | 11.3 µM | 41.9 µM | 3.71 | 

Second part, led by results:

Row | IC50 (MDA-MB-231 [2]) | SMILES | IC50 at 72 h [1] | selectivity ratio [3] | further results
35 | 16.5 µM | CC(=O)c1nc(C(=O)NCCCO)cc2c1[nH]c1ccccc12 | 41.2 µM | 2.5 | 
36 | 37.3 µM | CC(=O)c1nc(C(=O)NC(C)C)cc2c1[nH]c1ccccc12 | > 50 µM | > 1.34 | 
37 | 11.3 µM | CC(=O)c1nc(C(=O)NCCCN(C)C)cc2c1[nH]c1ccccc12 | > 50 µM | > 4.41 | 
38 | > 50 µM | CCCCNC(=O)c1cc2c([nH]c3ccccc32)c(C(C)=O)n1 | > 50 µM |  | 
39 | > 50 µM | CCCN(CCC)C(=O)c1cc2c([nH]c3ccccc32)c(C(C)=O)n1 | > 50 µM |  | 
40 | 48.3 µM | CC(=O)c1nc(C(=O)NCc2ccc(Cl)cc2)cc2c1[nH]c1ccccc12 | > 50 µM | > 1.04 | 
41 | 10.3 µM | CC(=O)c1nc(C(=O)NCc2ccccc2O)cc2c1[nH]c1ccccc12 | 38.3 µM | 3.7 | 
42 | > 50 µM | COC(=O)c1cc2c([nH]c3ccccc32)c(C(C)=O)n1 | > 50 µM |  | 
43 | 10.8 µM | CC(=O)c1nc(C(=O)Nc2ccc(N)cc2)cc2c1[nH]c1ccccc12 | > 50 µM | > 4.63 | 
44 | 16.3 µM | CC(=O)c1nc(C(=O)NCc2ccc(N)cc2)cc2c1[nH]c1ccccc12 | > 50 µM | > 3.07 | IC50 [5]: 15.5 µM
45 | > 50 µM | CC(=O)c1nc(C(=O)Nc2ccccc2)cc2c1[nH]c1ccccc12 | > 50 µM |  | 
46 | > 50 µM | CC(=O)c1nc(C(=O)NCc2ccccc2)cc2c1[nH]c1ccccc12 | > 50 µM |  | 
47 | 3.51 µM | CC(=O)c1nc(C(=O)NCc2ccc(O)cc2)cc2c1[nH]c1ccccc12 | > 50 µM | > 14.2 | IC50 [5]: 3.66 µM
48 | > 50 µM | CC(=O)c1nc(C(=O)O)cc2c1[nH]c1ccccc12 | > 50 µM |  | 
49 | 27.7 µM | CC(=O)c1nc(C(=O)NCc2cccc(O)c2)cc2c1[nH]c1ccccc12 | > 50 µM | > 1.81 | 
50 | > 50 µM | CC(=O)c1nc(C(=O)NCCc2ccccc2)cc2c1[nH]c1ccccc12 | > 50 µM |  | 
51 | > 50 µM | CNC(=O)c1cc2c([nH]c3ccccc32)c(C(C)=O)n1 | > 50 µM |  | 
52 | > 50 µM | CC(=O)c1nc(C(=O)N(C)C)cc2c1[nH]c1ccccc12 | > 50 µM |  | 
